Reference: US20130178469A1, “NOVEL ANTIVIRAL AGENTS” (SHANGHAI INSTITUTE OF ORGANIC CHEMISTRY (SIOC), priority 2010, published 2013)

System: HIV-1
Assay: Luciferase Assay with single-round reporter virus (NLXLuc or HIV-Luc)
Type: cell-based
Conditions: Human immunodeficiency virus 1
Text: Infectivity assays using reporter viruses derived from lentiviral vectors capable of a single round of infection were used to determine the activity (EC50) of compounds. The DNA used to generate viruses for infection was the full-length HIV-1 genome which had been envelope-deleted. In addition, a reporter gene (the firefly luciferase gene from Photinus pyralis) was cloned into the nefregion of the HIV backbone for ease of assay readout. […]. Culture supernatants containing VSV-G pseudotyped virions were harvested 64 h post transfection, clarified by centrifugation to remove cell debris, and frozen at −70° C. until use.
293FT cells were plated out at 12000 cells per well in CellView 96-well cell culture plates (Invitrogen) 16 h prior to compound addition. Compounds were preincubated with cells for 4 h at 37° C. prior to the addition of virus sufficient to generate approximately 10000 Luciferase light units (as measured by the Victor Wallace luminometer) upon assaying using the Bright-Glo™ reagent (Promega) according to the manufacturer's instructions at 48 h post infection.
In the tables below, this assay is referred to as NLXLuc or HIV-Luc.

SMILES | EC50 [nM]
CN1CCN(c2cc(N3CCCOC3=O)c3nc(C(=O)NCc4ccc(F)cc4)c(O)c(=O)n3c2)CC1 [Example 1.4, N-(4-fluorobenzyl)-3-hydroxy-7-(4-methylpiperazin-1-yl)-4-oxo-9-(2-oxo-1,3-oxazinan-3-yl)-4H-pyrido[1,2-a]pyrimidine-2-carboxamide] | 100 to 1000
CN1CCN(c2cc(N3CCCC3=O)c3nc(C(=O)NCc4ccc(F)cc4)c(O)c(=O)n3c2)CC1 [Example 2.4, 3-Hydroxy-7-(4-methyl-piperazin-1-yl)-4-oxo-9-(2-oxo-pyrrolidin-1-yl)-4H-pyrido[1,2-a]pyrimidine-2-carboxylic acid 4-fluoro-benzylamide] | 100 to 1000
O=C(NCc1ccc(F)cc1)c1nc2c(N3CCNCC3=O)cc(N3CCCC3)cn2c(=O)c1O [Example 4.4, 3-Hydroxy-4-oxo-9-(2-oxo-piperazin-1-yl)-7-pyrrolidin-1-yl-4H-pyrido[1,2-a]pyrimidine-2-carboxylic acid 4-fluoro-benzylamide] | 100 to 1000
CN1CCN(c2cc(N(C)S(C)(=O)=O)c3nc(C(=O)NCc4ccc(F)cc4)c(O)c(=O)n3c2)CC1 [Example 5.4, 3-Hydroxy-9-(methanesulfonyl-methyl-amino)-7-(4-methyl-piperazin-1-yl)-4-oxo-4H-pyrido[1,2-a]pyrimidine-2-carboxylic acid 4-fluoro-benzylamide] | 10 to 20
CC(C)N1CCN(c2cc(N(C)S(C)(=O)=O)c3nc(C(=O)NCc4ccc(F)cc4)c(O)c(=O)n3c2)CC1 [Example 6.3, Trifluoro-acetate4-[2-(4-fluoro-benzylcarbamoyl)-3-hydroxy-9-(methanesulfonyl-methyl-amino)-4-oxo-4H-pyrido[1,2-a]pyrimidin-7-yl]-1-isopropyl-piperazin-1-ium] | 10 to 20
CN(C)c1cc(N2CCOC2=O)c2nc(C(=O)NCc3ccc(F)cc3)c(O)c(=O)n2c1 [Example 7.3, 7-(dimethylamino)-N-(4-fluorobenzyl)-3-hydroxy-4-oxo-9-(2-oxooxazolidin-3-yl)-4H-pyrido[1,2-a]pyrimidine-2-carboxamide] | 100 to 1000
CN(C)c1cc(N2CCCOC2=O)c2nc(C(=O)NCc3ccc(F)cc3)c(O)c(=O)n2c1 [Example 8.3, 7-(dimethylamino)-N-(4-fluorobenzyl)-3-hydroxy-4-oxo-9-(2-oxo-1,3-oxazinan-3-yl)-4H-pyrido[1,2-a]pyrimidine-2-carboxamide] | 20 to 100
CN(C)c1cc(N2CCNCC2=O)c2nc(C(=O)NCc3ccc(F)cc3)c(O)c(=O)n2c1 [Example 9.3, 7-(dimethylamino)-N-(4-fluorobenzyl)-3-hydroxy-4-oxo-9-(2-oxopiperazin-1-yl)-4H-pyrido[1,2-a]pyrimidine-2-carboxamide] | 100 to 1000
O=C(NCc1ccc(F)cc1)c1nc2c(N3CCNCC3=O)cc(N3CCOCC3)cn2c(=O)c1O [Example 10.3, N-(4-fluorobenzyl)-3-hydroxy-7-morpholino-4-oxo-9-(2-oxopiperazin-1-yl)-4H-pyrido[1,2-a]pyrimidine-2-carboxamide] | 100 to 1000
CC1COCCN1c1cc(N2CCNCC2=O)c2nc(C(=O)NCc3ccc(F)cc3)c(O)c(=O)n2c1 (stereo not drawn) [Example 11.3, N-(4-fluorobenzyl)-3-hydroxy-7-(3-methylmorpholino)-4-oxo-9-(2-oxopiperazin-1-yl)-4H-pyrido[1,2-a]pyrimidine-2-carboxamide] | 100 to 1000
O=C(NCc1ccc(F)cc1)c1nc2c(N3CCNCC3=O)cc(N3CCCCC3)cn2c(=O)c1O [Example 12.3, 3-Hydroxy-4-oxo-9-(2-oxo-piperazin-1-yl)-7-piperidin-1-yl-4H-pyrido[1,2-a]pyrimidine-2-carboxylic acid 4-fluoro-benzylamide] | 20 to 100
CN(CC1CC1)c1cc(N2CCNCC2=O)c2nc(C(=O)NCc3ccc(F)cc3)c(O)c(=O)n2c1 [Example 13.4, 7-(Cyclopropylmethyl-methyl-amino)-3-hydroxy-4-oxo-9-(2-oxo-piperazin-1-yl)-4H-pyrido[1,2-a]pyrimidine-2-carboxylic acid 4-fluoro-benzylamide] | 20 to 100
CN1CCN(c2cc(N3CCNCC3=O)c3nc(C(=O)NCc4ccc(F)cc4)c(O)c(=O)n3c2)CC1 [Example 14.3, 3-Hydroxy-7-(4-methyl-piperazin-1-yl)-4-oxo-9-(2-oxo-piperazin-1-yl)-4H-pyrido[1,2-a]pyrimidine-2-carboxylic acid 4-fluoro-benzylamide] | 100 to 1000
O=C(NCc1ccc(F)cc1)c1nc2c(N3CCNCC3=O)cc(N3CCNCC3)cn2c(=O)c1O [Example 15.3, 3-Hydroxy-4-oxo-9-(2-oxo-piperazin-1-yl)-7-piperazin-1-yl-4H-pyrido[1,2-a]pyrimidine-2-carboxylic acid 4-fluoro-benzylamide] | 100 to 1000
CN1CCN(c2cc(N3CCOCC3)cn3c(=O)c(O)c(C(=O)NCc4ccc(F)cc4)nc23)C(=O)C1 [Example 16.4, 3-Hydroxy-9-(4-methyl-2-oxo-piperazin-1-yl)-7-morpholin-4-yl-4-oxo-4H-pyrido[1,2-a]pyrimidine-2-carboxylic acid 4-fluoro-benzylamide] | 20 to 100
CC(C)N1CCN(c2cc(N3CCN(C)CC3)cn3c(=O)c(O)c(C(=O)NCc4ccc(F)cc4)nc23)C1=O [Example 17.4, 3-Hydroxy-9-(3-isopropyl-2-oxo-imidazolidin-1-yl)-7-(4-methyl-piperazin-1-yl)-4-oxo-4H-pyrido[1,2-a]pyrimidine-2-carboxylic acid 4-fluoro-benzylamide] | 20 to 100
CN1CCN(c2cc(N3CCCCC3=O)c3nc(C(=O)NCc4ccc(F)cc4)c(O)c(=O)n3c2)CC1 [Example 18.4, 3-Hydroxy-7-(4-methyl-piperazin-1-yl)-4-oxo-9-(2-oxo-piperidin-1-yl)-4H-pyrido[1,2-a]pyrimidine-2-carboxylic acid 4-fluoro-benzylamide] | 20 to 100
O=C(NCc1ccc(F)cc1)c1nc2c(N3CCOC3=O)cc(N3CCNCC3)cn2c(=O)c1O [Example 19.4, 3-Hydroxy-4-oxo-9-(2-oxo-oxazolidin-3-yl)-7-piperazin-1-yl-4H-pyrido[1,2-a]pyrimidine-2-carboxylic acid 4-fluoro-benzylamide] | > 1000
CN1CCN(c2cc(N3CCOC3=O)c3nc(C(=O)NCc4ccc(F)cc4)c(O)c(=O)n3c2)CC1 [Example 20.4, 3-Hydroxy-7-(4-methyl-piperazin-1-yl)-4-oxo-9-(2-oxo-oxazolidin-3-yl)-4H-pyrido[1,2-a]pyrimidine-2-carboxylic acid 4-fluoro-benzylamide] | 20 to 100
O=C(NCc1ccc(F)cc1)c1nc2c(N3CCOCC3)cc(N3CCOCC3)cn2c(=O)c1O [Example 21.5, N-(4-fluorobenzyl)-3-hydroxy-7,9-dimorpholino-4-oxo-4H-pyrido[1,2-a]pyrimidine-2-carboxamide] | 100 to 1000
CN1CCN(c2cc(N3CCOCC3)cn3c(=O)c(O)c(C(=O)NCc4ccc(F)cc4)nc23)C1=O [Example 29.2, N-(4-fluorobenzyl)-3-hydroxy-9-(3-methyl-2-oxoimidazolidin-1-yl)-7-morpholino-4-oxo-4H-pyrido[1,2-a]pyrimidine-2-carboxamide] | 20 to 100
CN1CCN(c2cc(N3CCOCC3)cn3c(=O)c(O)c(C(=O)NCc4ccc(Cl)c(Cl)c4)nc23)C1=O [Example 30, N-(3,4-dichlorobenzyl)-3-hydroxy-9-(3-methyl-2-oxoimidazolidin-1-yl)-7-morpholino-4-oxo-4H-pyrido[1,2-a]pyrimidine-2-carboxamide] | 20 to 100
CN1CCN(c2cc(N(C)C)cn3c(=O)c(O)c(C(=O)NCc4ccc(F)cc4)nc23)C1=O [Example 31.3, 7-Dimethylamino-3-hydroxy-9-(3-methyl-2-oxo-imidazolidin-1-yl)-4-oxo-4H-pyrido[1,2-a]pyrimidine-2-carboxylic acid 4-fluoro-benzylamide] | 100 to 1000
CC(C)N1CCN(c2cc(N3CCN(C)C3=O)c3nc(C(=O)NCc4ccc(F)cc4)c(O)c(=O)n3c2)CC1 [Example 32.4, 3-Hydroxy-7-(4-isopropyl-piperazin-1-yl)-9-(3-methyl-2-oxo-imidazolidin-1-yl)-4-oxo-4H-pyrido[1,2-a]pyrimidine-2-carboxylic acid 4-fluoro-benzylamide] | 10 to 20
O=C(NCc1ccc(F)cc1)c1nc2c(N3CCCS3(=O)=O)cc(N3CCNCC3)cn2c(=O)c1O [Example 33, 3-Hydroxy-4-oxo-9-(1,3-propanesultam)-7-piperazin-1-yl-4H-pyrido[1,2-a]pyrimidine-2-carboxylic acid 4-fluoro-benzylamide] | 100 to 1000
Cc1ccc2nc(C(=O)NCc3ccc(F)cc3)c(O)c(=O)n2c1 [drawing 177, reference compound] | > 1000
Cc1ccc2nc(C(=O)NCc3ccc(Cl)c(Cl)c3)c(O)c(=O)n2c1 [drawing 186, reference compound] | 100 to 1000
